Measurements from PubChem BioAssay AID1963964 (Molecular Pharmacology Branch, DTP, NCI, 2024).

Test system: 997726-040-R-J2-PDC tumor spheroids, viability
Experiment: Anticancer human tumor 997726-040-R-J2-PDC patient-derived squamous cell lung carcinoma cell line growth inhibition [PI3K]
Conditions: spheroids with HUVEC and MSC; for IC50: curve of first compound; for viability, T/C: stronger effect = lower value; active means viability on the fitted dose curve at most 10% of control; inactive means the rest
Procedure, shortened: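 Combination activity was assessed by viability in multicellular tumor spheroids carrying HUVEC and MSC components. Agents were tested with PI3K inhibitors from a Cmax-based top dose (or 10 microM) downward in half-log increments.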

[1] = second compound 0.0316 µM, first compound 0.0316 µM
[2] = second compound 0.0316 µM, first compound 0.1 µM
[3] = second compound 0.1 µM, first compound 0.0316 µM
[4] = second compound 0.1 µM, first compound 0.1 µM
[5] = second compound 0.316 µM, first compound 0.0316 µM
[6] = second compound 0.316 µM, first compound 0.1 µM
[7] = second compound 1 µM, first compound 0.0316 µM
[8] = second compound 1 µM, first compound 0.1 µM
[9] = second compound 3.16 µM, first compound 0.0316 µM
[10] = second compound 3.16 µM, first compound 0.1 µM
[11] = second compound 10 µM, first compound 0.0316 µM
[12] = second compound 10 µM, first compound 0.1 µM
[13] = second compound 0.0316 µM, first compound 0.316 µM
[14] = second compound 0.0316 µM, first compound 1 µM
[15] = second compound 0.0316 µM, first compound 3.16 µM
[16] = second compound 0.0316 µM, first compound 10 µM
[17] = second compound 0.1 µM, first compound 0.316 µM
[18] = second compound 0.1 µM, first compound 1 µM
[19] = second compound 0.1 µM, first compound 3.16 µM
[20] = second compound 0.1 µM, first compound 10 µM
[21] = second compound 0.316 µM, first compound 0.316 µM
[22] = second compound 0.316 µM, first compound 1 µM
[23] = second compound 0.316 µM, first compound 3.16 µM
[24] = second compound 0.316 µM, first compound 10 µM
[25] = second compound 1 µM, first compound 0.316 µM
[26] = second compound 1 µM, first compound 1 µM
[27] = second compound 1 µM, first compound 3.16 µM
[28] = second compound 1 µM, first compound 10 µM
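Further: spheroids exposed to compounds for seven days before readout.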

CC(=O)c1c(C)c2cnc(Nc3ccc(N4CCNCC4)cn3)nc2n(C2CCCC2)c1=O + CC(Nc1ncnc2nc[nH]c12)c1cc2cccc(Cl)c2c(=O)n1-c1ccccc1
10.6 nM: IC50 (second compound 10 µM)
> 100 nM: IC50 (second compound 0.0316 µM) | IC50 (second compound 0.1 µM) | IC50 (second compound 0.316 µM) | IC50 (second compound 1 µM) | IC50 (second compound 3.16 µM)
inactive: viability, T/C (second compound 0.0316 µM, first compound 0.000316 µM) 94% | viability, T/C (second compound 0.0316 µM, first compound 0.001 µM) 109% | viability, T/C (second compound 0.0316 µM, first compound 0.00316 µM) 93.7% | viability, T/C (second compound 0.0316 µM, first compound 0.01 µM) 87.7% | viability, T/C [1] 86.1% | viability, T/C [2] 61.2% | viability, T/C (second compound 0.1 µM, first compound 0.000316 µM) 102% | viability, T/C (second compound 0.1 µM, first compound 0.001 µM) 94.8% | viability, T/C (second compound 0.1 µM, first compound 0.00316 µM) 91.3% | viability, T/C (second compound 0.1 µM, first compound 0.01 µM) 96.6% | viability, T/C [3] 78.3% | viability, T/C [4] 65.5% | viability, T/C (second compound 0.316 µM, first compound 0.000316 µM) 99.8% | viability, T/C (second compound 0.316 µM, first compound 0.001 µM) 96.7% | viability, T/C (second compound 0.316 µM, first compound 0.00316 µM) 91.3% | viability, T/C (second compound 0.316 µM, first compound 0.01 µM) 83.5% | viability, T/C [5] 81.6% | viability, T/C [6] 57.3% | viability, T/C (second compound 1 µM, first compound 0.000316 µM) 97.1% | viability, T/C (second compound 1 µM, first compound 0.001 µM) 85.7% | viability, T/C (second compound 1 µM, first compound 0.00316 µM) 86.9% | viability, T/C (second compound 1 µM, first compound 0.01 µM) 74.1% | viability, T/C [7] 75.8% | viability, T/C [8] 53.3% | viability, T/C (second compound 3.16 µM, first compound 0.000316 µM) 72.9% | viability, T/C (second compound 3.16 µM, first compound 0.001 µM) 71.7% | viability, T/C (second compound 3.16 µM, first compound 0.00316 µM) 77.3% | viability, T/C (second compound 3.16 µM, first compound 0.01 µM) 70.1% | viability, T/C [9] 58.4% | viability, T/C [10] 50.4% | viability, T/C (second compound 10 µM, first compound 0.000316 µM) 53.9% | viability, T/C (second compound 10 µM, first compound 0.001 µM) 51.6% | viability, T/C (second compound 10 µM, first compound 0.00316 µM) 56.9% | viability, T/C (second compound 10 µM, first compound 0.01 µM) 50.4% | viability, T/C [11] 41.8% | viability, T/C [12] 43.4%

CC1(C)CCC(CN2CCN(c3ccc(C(=O)NS(=O)(=O)c4ccc(NCC5CCOCC5)c([N+](=O)[O-])c4)c(Oc4cnc5[nH]ccc5c4)c3)CC2)=C(c2ccc(Cl)cc2)C1 + CC(Nc1ccc2c(c1)OCCn1cc(N3C(=O)OCC3C(F)F)nc1-2)C(N)=O
9250 nM: IC50 (second compound 0.01 µM)
inactive: viability, T/C (second compound 0.00316 µM, first compound 0.0316 µM) 74.8% | viability, T/C (second compound 0.00316 µM, first compound 0.1 µM) 82.8% | viability, T/C (second compound 0.00316 µM, first compound 0.316 µM) 92.2% | viability, T/C (second compound 0.00316 µM, first compound 1 µM) 83.6% | viability, T/C (second compound 0.00316 µM, first compound 3.16 µM) 73.1% | viability, T/C (second compound 0.00316 µM, first compound 10 µM) 48.1% | viability, T/C (second compound 0.01 µM, first compound 0.0316 µM) 64.9% | viability, T/C (second compound 0.01 µM, first compound 0.1 µM) 86.6% | viability, T/C (second compound 0.01 µM, first compound 0.316 µM) 74.2% | viability, T/C (second compound 0.01 µM, first compound 1 µM) 81.6% | viability, T/C (second compound 0.01 µM, first compound 3.16 µM) 70% | viability, T/C (second compound 0.01 µM, first compound 10 µM) 48.1% | viability, T/C [1] 60.8% | viability, T/C [2] 63.8% | viability, T/C [13] 70.7% | viability, T/C [14] 55% | viability, T/C [15] 62.9% | viability, T/C [16] 39.5% | viability, T/C [3] 42.5% | viability, T/C [4] 42.1% | viability, T/C [17] 43.5% | viability, T/C [18] 37.2% | viability, T/C [19] 39.8% | viability, T/C [20] 28.3% | viability, T/C [5] 30.7% | viability, T/C [6] 33.3% | viability, T/C [21] 32.9% | viability, T/C [22] 29.9% | viability, T/C [23] 24.1% | viability, T/C [24] 15.9% | viability, T/C [7] 27.9% | viability, T/C [8] 21.5% | viability, T/C [25] 24.5% | viability, T/C [26] 27.7% | viability, T/C [27] 24.8% | viability, T/C [28] 12.3%
< 31.6 nM: IC50 (second compound 0.1 µM) | IC50 (second compound 0.316 µM) | IC50 (second compound 1 µM)
9170 nM: IC50 (second compound 0.00316 µM)
5870 nM: IC50 (second compound 0.0316 µM)

C#Cc1c(F)ccc2cc(O)cc(-c3ncc4c(N5CC6CCC(C5)N6)nc(OCC56CCCN5CC(F)C6)nc4c3F)c12 (stereo unspecified) + Cc1nc(NC(=O)N2CCCC2C(N)=O)sc1-c1ccnc(C(C)(C)C(F)(F)F)c1
> 10000 nM: IC50 (second compound 0.0316 µM) | IC50 (second compound 0.1 µM)
inactive: viability, T/C [1] 89.9% | viability, T/C [2] 88.9% | viability, T/C [13] 84% | viability, T/C [14] 81.3% | viability, T/C [15] 77.9% | viability, T/C [16] 75.5% | viability, T/C [3] 77.4% | viability, T/C [4] 71.4% | viability, T/C [17] 74.6% | viability, T/C [18] 79.8% | viability, T/C [19] 60.9% | viability, T/C [20] 55% | viability, T/C [5] 59.6% | viability, T/C [6] 51.2% | viability, T/C [21] 51% | viability, T/C [22] 44.3% | viability, T/C [23] 42.9% | viability, T/C [24] 41.9% | viability, T/C [7] 41.4% | viability, T/C [8] 39.5% | viability, T/C [25] 41.7% | viability, T/C [26] 40.3% | viability, T/C [27] 40.3% | viability, T/C [28] 30% | viability, T/C [9] 30.8% | viability, T/C [10] 27.2% | viability, T/C (second compound 3.16 µM, first compound 0.316 µM) 31.2% | viability, T/C (second compound 3.16 µM, first compound 1 µM) 28.5% | viability, T/C (second compound 3.16 µM, first compound 3.16 µM) 30.5% | viability, T/C (second compound 3.16 µM, first compound 10 µM) 21.9% | viability, T/C [11] 15.8% | viability, T/C [12] 17.6% | viability, T/C (second compound 10 µM, first compound 0.316 µM) 13.4% | viability, T/C (second compound 10 µM, first compound 1 µM) 17.6% | viability, T/C (second compound 10 µM, first compound 3.16 µM) 14.1% | viability, T/C (second compound 10 µM, first compound 10 µM) 15.8%
220 nM: IC50 (second compound 0.316 µM)
< 31.6 nM: IC50 (second compound 1 µM) | IC50 (second compound 3.16 µM) | IC50 (second compound 10 µM)
